Source: patent publication US10351613B2, “Polypeptide for inhibition of tumor” (G-Bio Pharma Tech Co., Ltd., priority 2015, dated 2019)
In brackets after ≈: the same amount, converted by molar mass. Residues, ends and D or L forms follow the SMILES beside them.

Columns and labels:
[1] = system: Human lung cancer A549 tumor model; test: Inhibition on in vivo growth of tumor in combination with DDP, A549 model; conditions: for Tumor inhibitor rate (%): A549, day 21
Method: In vitro cultured tumor cells in exponential phase and in good state were formulated to a 100 μl cell suspension containing 5×10^6 tumor cells. The suspension was subcutaneously inoculated to nude mice. Well-grown solid tumors were obtained 15 days later and cut into uniform pieces of about 3 mm under sterile condition. Each nude mouse was inoculated by one piece through a trocar. Mice were re-grouped according the tumor size 10-14 days after inoculation and animals having too large and too small tumor were excluded from the test. […] Test drugs were administered to each group according to the experimental protocol. The major axis (a) and minor axis (b) of the tumor were measured twice a week. Animals were sacrificed at the end of the test. The tumor was taken out, weighed and photos were taken. Tumor volume (TV)=½×a×b^2; Relative tumor volume (RTV)=Vt/Vo, wherein Vo is the tumor volume measured before grouping (one day before administration of the test drug), and Vt is the tumor volume measured at each time. Tumor inhibition rate (%)=(1−T/C)×100%, wherein T is the average tumor volume of the treatment group and C is the average tumor volume of the negative control group.
The amino acid sequence of recombination endostatin (“endostatin”) was set forth in SEQ ID NO: 1, and the amino acid sequence of the marketed drug Endostar (“endostar”) was set forth in SEQ ID NO: 10. Human lung cancer A549 tumor model was constructed according to the method described in Example 10. The test contained 7 groups, with 6 animals in each group. The molar dose of the polypeptides was basically equal to the molar dose of endostatin.

[2] = system: BxPC-3 (pancreatic cancer); test: MTT in vitro inhibition of BxPC-3; format: cell-based
Method: (§1) Inhibition of cell growth was detected by a MTT method, which is based on the principle that succinate dehydrogenase in the mitochondria of the live cells could reduce the exogenous MTT (3-(4,5-dimethyl-2-thiazolyl)-2,5-diphenyl-tetrazolium bromide) to a […] Formazan which is a blue-violet crystal, and precipitates in the cells, while the death cells could not reduce MTT. DMSO could dissolve Formazan in the cells. Absorbance value of the solution was determined at 490/570 nm by microplate reader, which could indirectly indicate the amount of the live cells. The amount of the crystal from MTT is proportional to the amount of the cells within a certain range of cell number. The supernate from the HUVEC or tumor cells in exponential phase was removed and the cells were washed by PBS once. 1 ml 0.25% trypsin (4° C.) was added for digestion at 37° C. for 2 min. Then the supernate was added for neutralization and the cells were dispersed to form a suspension and the suspension was centrifuged at 1000 rpm for 3 min. The supernate was removed and 5 ml culture mediums were added for resuspension. Cells were inoculated in a 48-well plate by 500 ul/well at the concentration of 3×10^4/ml and then incubated under 5% CO2, 37° C. for 24 hours. The supernate was removed and a culture medium containing polypeptide (Zn^2+ in the culture medium was present at the concentration of 17.39 μmol/L) was added for further incubation for 48 hours. Supernate in each well was carefully removed. The well was gently washed by PBS once in an amount of 450 μl/well. 450 μl MTT culture mediums were added into each well for further cultivation for 4 hours. The supernate was carefully discarded. DMSO was added in an amount of 450 μl/well and then the plate was placed in a shaking bed for oscillation for 10 min in dark. 150 μl supernates were transferred to a 96-well ELISA plate and absorbance value of each well was detected at 490 nm and 570 nm by the microplate reader.
(§2) P2 (SEQ ID NO:2) and P2T2S18 (SEQ ID NO:6) were tested for their in vitro inhibition on SMMC7221, SPC-A-1, A549, LS174T, BEL7402, CK-MES-1 and BxPC-3 at a polypeptide concentration of 1 mg/ml according to the method described in Example 3. Results are shown in FIG. 9 and the following Table. […] All IC50 concentrations for P2T2S18 are less than 1/10 IC50 concentration of P2.

BEL7402 (Liver cancer) = test: MTT in vitro inhibition of BEL7402; format: cell-based
Method: as §1, §2

A549 (lung carcinoma) = test: MTT in vitro inhibition of A549; format: cell-based
Method: as §1, §2

[3] = system: lung cancer cell line SPC-A-1; test: In vitro death of SPC-A-1 tumor cell observed under optical microscope; format: cell-based; conditions: SPC-A-1, 2.5 mg/ml
Method: Polypeptides were tested for their effect in inducing cell death of lung cancer cell line SPC-A-1 at a polypeptide concentration of 2.5 mg/ml according to the method described in Example 3. Cells were observed under an optical microscope over 24 hours and photos were taken. P2 exerts its function 4 hours after being added into the culture medium. […] On the contrary, they extremely swelled. 4 hours later cells further swelled and began to disintegrate at 8 hours. […] The manner of P2T2S18 caused cell death is very surprising. Currently, it is unable to determine what manner this kind of cell death belongs to. No report is found in papers as well. However, this mode of cell death is obviously different from that caused by P2. Together with the results in Example 7, it can conclude that P2T2S18 not only has a biological activity obviously higher than P2, but also has a manner causing cell death obviously different from that of P2.

SMMC7721 (Liver cancer) = test: MTT in vitro inhibition of SMMC7721; format: cell-based
Method: as §1, §2

tumor cell HepG2 = format: cell-based
Method: as §1

[4] = system: Human Umbilical Vein Endothelial Cell (HUVEC); format: cell-based
Method: 20 cm umbilical cord adjacent to fetus was taken, cleaned by washing, ligated at both ends, placed into 150 ml preservation solutions for umbilical cord, and stored in a 4° C. refrigerator for digestion for 6 hours. The umbilical cord was inspected to remove the damaged portion. The umbilical vein was thoroughly cleaned by washing and then 10 ml collagenase solution was injected. Then the umbilical vein was transferred to a 37° C. incubator for digestion for 15 minutes. The umbilical cord was removed and the digested solution was recovered. The digested solution was washed by PBS and centrifuged. After centrifugation, the cells were culture by re-suspension.
as §1

[5] = system: Human liver cancer BEL7404 tumor model; format: in vivo; conditions: BEL7404, day 21; polypeptides 15 mg/kg sc 2 times per day 21 days; endostatin/endostar 50 mg/kg sc; CTX 30 mg/kg ip 7 days
Method: In vitro cultured tumor cells in exponential phase and in good state were formulated to a 100 μl cell suspension containing 5×10^6 tumor cells. The suspension was subcutaneously inoculated to nude mice. Well-grown solid tumors were obtained 15 days later and cut into uniform pieces of about 3 mm under sterile condition. Each nude mouse was inoculated by one piece through a trocar. Mice were re-grouped according the tumor size 10-14 days after inoculation and animals having too large and too small tumor were excluded from the test. The average tumor volume for each group was basically identical. Test drugs were administered to each group according to the experimental protocol. The major axis (a) and minor axis (b) of the tumor were measured twice a week. Animals were sacrificed at the end of the test. The tumor was taken out, weighed and photos were taken. Tumor volume (TV)=½×a×b^2; Relative tumor volume (RTV)=Vt/Vo, wherein Vo is the tumor volume measured before grouping (one day before administration of the test drug), and Vt is the tumor volume measured at each time. Tumor inhibition rate (%)=(1−T/C)×100%, wherein T is the average tumor volume of the treatment group and C is the average tumor volume of the negative control group.
The amino acid sequence of recombination endostatin (“endostatin”) was set forth in SEQ ID NO: 1, and the amino acid sequence of the marketed drug Endostar (“endostar”) was set forth in SEQ ID NO: 10. Human liver cancer BEL7404 tumor model was constructed according to the method described in Example 10. The test contained 6 groups, with 6 animals in each group, except for the negative control group which contained 9 animals. The molar dose of the polypeptides was basically equal to the molar dose of endostatin. The results are shown in FIGS. 11a and 11b and the following Table.

[6] = system: CK-MES-1 (lung squamous cell carcinoma); test: MTT in vitro inhibition of CK-MES-1; format: cell-based
Method: as §1, §2

SPC-A-1 (lung carcinoma) = format: cell-based
Method: as §1, §2

LS174T (Colon cancer) = format: cell-based
Method: as §1, §2

N.N.[Cl][Pt][Cl] [DDP, Cisplatin]
Tumor inhibitor rate (%) ([1]; DDP 2 mg/kg/day ip 7 days alone or with polypeptide 15 mg/kg or endostatin/endostar 50 mg/kg sc 2 times per day 21 days): 24.8% | Tumor inhibitor rate (%) ([1]; DDP 6 mg/kg/day ip 7 days (high dose)): 81.9% | animals with residual tumor ([1]; of 6 animals, combination with DDP 2 mg/kg, DDP alone 6 mg/kg): 6

CC[C@H](C)[C@H](NC(=O)CNC(=O)[C@H](CCCNC(=N)N)NC(=O)[C@H](CCSC)NC(=O)CNC(=O)CNC(=O)[C@H](CO)NC(=O)[C@H](CC(C)C)NC(=O)[C@@H]1CCCN1C(=O)[C@H](CO)NC(=O)[C@H](CC(N)=O)NC(=O)[C@H](CC(C)C)NC(=O)[C@H](C)NC(=O)[C@@H](NC(=O)[C@H](CC(C)C)NC(=O)[C@H](Cc1c[nH]cn1)NC(=O)[C@H](CC(C)C)NC(=O)[C@@H](NC(=O)[C@@H]1CCCN1C(=O)[C@H](CCC(N)=O)NC(=O)[C@H](Cc1ccccc1)NC(=O)[C@H](CC(=O)O)NC(=O)[C@H](CCCNC(=N)N)NC(=O)[C@H](Cc1c[nH]cn1)NC(=O)[C@H](CO)NC(=O)[C@H](Cc1c[nH]cn1)NC(C)=O)C(C)C)C(C)C)C(=O)N[C@@H](CCCNC(=N)N)C(=O)NCC(=O)N[C@@H](C)C(=O)N[C@@H](CC(=O)O)C(N)=O [Polypeptide P2] (Ac-HSHRDFQPVLHLVALNSPLSGGMRGIRGAD-NH2)
IC50 ([2]; BxPC-3): 860.9 µg/mL (≈ 262 µM) | Cell Survival (%) at a polypeptide concentration of 1 mg/ml ([2]; BxPC-3, 1 mg/ml): 40% | IC50 (BEL7402 (Liver cancer); BEL7402): 732.9 µg/mL (≈ 223 µM) | Cell Survival (%) at a polypeptide concentration of 1 mg/ml (BEL7402 (Liver cancer); BEL7402, 1 mg/ml): 20% | IC50 (A549 (lung carcinoma); A549): 1312.2 µg/mL (≈ 400 µM) | Cell Survival (%) at a polypeptide concentration of 1 mg/ml (A549 (lung carcinoma); A549, 1 mg/ml): 57% | time after being added into the culture medium at which the polypeptide acts on the cells [3]: 4 h | state of cells at 24 hours ([3]; 24 hours): basically died | IC50 (SMMC7721 (Liver cancer); SMMC7721): 1030.2 µg/mL (≈ 314 µM) | Cell Survival (%) at a polypeptide concentration of 1 mg/ml (SMMC7721 (Liver cancer); SMMC7721, 1 mg/ml): 42% | IC50 (ug/ml) HepG2 (tumor cell HepG2): 1033.4 µg/mL (≈ 315 µM) | Cell Survival (%), 1 mg/ml of polypeptide, HepG2 (tumor cell HepG2; 1): 41% | IC50 (ug/ml) HUVEC [4]: 733.4 µg/mL (≈ 224 µM) | Cell Survival (%), 1 mg/ml of polypeptide, HUVEC ([4]; 1 mg/ml): 25% | Tumor inhibitor rate (%) [5]: 33.7% | IC50 ([6]; CK-MES-1): 863.1 µg/mL (≈ 263 µM) | Cell Survival (%) at a polypeptide concentration of 1 mg/ml ([6]; CK-MES-1, 1 mg/ml): 42% | IC50 (SPC-A-1 (lung carcinoma); SPC-A-1): 1111.8 µg/mL (≈ 339 µM) | Cell Survival (%) at a polypeptide concentration of 1 mg/ml (SPC-A-1 (lung carcinoma); SPC-A-1, 1 mg/ml): 48% | IC50 (LS174T (Colon cancer)): 1683.8 µg/mL (≈ 513 µM) | Cell Survival (%) at a polypeptide concentration of 1 mg/ml (LS174T (Colon cancer); 1 mg/ml): 95%
